Measured values published in US9468650B2, “Inhibition of endosomal toll-like receptor activation” (DUKE UNIVERSITY, priority 2009, dated 2016).

Legend:
[1] = system: mammalian cell lines; conditions: cited from earlier work
[2] = system: Raw264.7 cells
[3] = mouse, in vivo, 40 mg/kg
[4] = system: TLR3; experiment: Cytokine production (TNFα, IL-6) of murine macrophage Raw264.7 stimulated with poly I:C; assay type: cell-based; conditions: TNFα and IL-6 by ELISA
[5] = mouse, in vivo; cited from earlier work

In the case of Poly(allylamine) [PAL], the “cytotoxicity (remark)” value [1] is given as 1. Commercially available. 2. Highly positive charged 3. Low toxicity.
For Polyethyleneimine [PEI], the “cytotoxicity (remark)” value [1] is listed as 3. high cytotoxicity.
For “polyamidoamine dendrimer, 1,4-diaminobutane core, G3 [PAMAM]”, the “concentration inducing over 50% cell death” value [2] was “about 160 μg/ml” and the “adverse effects on viability of mice” value [3] was “no adverse effects on viability”.
With protamine [reference compound] the “effect on poly I:C (TLR3 ligand) induced inflammatory cytokine production” value [4] was “did not block but significantly enhanced” and the “concentration inducing over 50% cell death” value [2] was ~280 µg/mL.
In the case of “β-cyclodextrin-containing polycation [CDP]”, the tolerability on macrophages [2] is given as “well tolerated”, the “adverse effects on viability of mice” value [3] is given as “no adverse effects on viability” and the LD50 [5] is given as 200 mg/kg.
